The results in this text go back to PubChem BioAssay (NCI).

Several values for one entry are separate records, joined by “and”; a condition that tells them apart may be missing. Equal values may be shown once.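 How tested: cells in 96-well plates exposed to compound for 48 hours at five concentrations. The concentration for 50% growth inhibition is given as GI50. TGI: total growth inhibition.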

Common to all, as to test: NCI tumour cell line growth inhibition, 48 h
Assay [1] relates to P388 leukemia.
The test system of assay [2] is SN12K1 renal.
Assay [3] relates to XF 498 CNS.
Assay [4] concerns HOP-18 NSCLC.
In assay [5] the test system is SNB-78 CNS.
Assay [6] deals with MDA-N.
Assay [7] has as its system P388/ADR leukemia.
The test system of assay [8] is DMS 273 small cell lung.
In assay [9] the test system is M19-MEL melanoma.
In assay [10] the test system is DLD-1 colon.
Assay [11] relates to KM20L2 colon.
Assay [12] concerns RXF-631 renal.

Consider `COC(=O)[C@@]12OC[C@]34[C@H]([C@@H](O)[C@@H]1O)[C@@]1(C)CC(=O)C(O)=C(C)[C@@H]1C[C@H]3OC(=O)[C@H](OC(=O)/C=C(\C)C(C)C)[C@@H]24`, for which the TGI in assay [1] is 0.109 µM; in [2], 0.0541 µM; in [3], 0.0212 µM; in [4], 0.016 µM and 0.0848 µM; in assay [5], 0.00899 µM and 0.0427 µM and 0.0707 µM; in assay [6], 0.0345 µM and 0.0321 µM. The TGI amounted to 0.692 µM in [7] and 0.000177 µM in [8]. Moreover, the GI50 in [4] is 0.00161 µM; in assay [5] it was 0.00089 µM; in [6] it was 0.02 µM.
Regarding `CN(C)CCCN1c2ccccc2Sc2ccc(C(F)(F)F)cc21`, the TGI in [9] amounted to 32.3 µM; in assay [5] it was 33.9 µM; in assay [6], 26.3 µM; in assay [10], 31.9 µM; in assay [8], 29.4 µM; in assay [11], 23.7 µM.
As for `CC(C)(O)C1COC2=C1C(=O)c1ccccc1C2=O` (configuration not stated), the TGI in [6] amounted to 33.3 µM.
Take `CC1NOC(=O)C1N=Nc1cccc(Cl)c1` (configuration not stated): the TGI in assay [9] was 91.7 µM; in [3], 72 µM; in assay [4] it was above 100 µM; in assay [5], above 100 µM; in assay [10], above 100 µM; in assay [8], above 100 µM. This compound also registered a TGI in assay [11] above 100 µM.
With `C[N+](C)(C)CC1CCC(C[N+](C)(C)C)C1=NO` (configuration not stated), the TGI in assay [9], in assay [3], in assay [4], in assay [5], in [10] and in [11] was above 100 µM each time.
On to `O=C(N/C(=C\c1ccc([N+](=O)[O-])cc1)c1nc2ccccc2s1)c1ccccc1`, for which the TGI in assay [9] is 53.9 µM; in [3], above 100 µM; in assay [4], 61.9 µM; in [5], above 100 µM; in assay [10] it was 58.7 µM; in assay [8] it was above 100 µM. Moreover, the TGI in [11] was above 100 µM.
In the case of `COC(=O)C1=NC(=S)NC(c2ccccc2)C1c1nc2ccccc2o1` (configuration not stated), the TGI in assay [9], in assay [3], in assay [4], in assay [5], in assay [10] and in assay [11] was above 50 µM throughout.
In turn, `O=[N+]([O-])c1cccc(/C=N/Nc2ccc3ccccc3n2)c1O` registered a TGI in assay [6] of 34.3 µM.
In turn, `CCCCCCCCCCCCCCCCCc1nc(Cl)nc(Cl)c1Cl` showed a TGI in [6] above 100 µM.
On to `O=S(=O)(c1ccccc1)N1CCCC(c2ccccc2)CC1` (configuration not stated), for which the TGI in assay [6] is above 100 µM.
As to `FC(F)(F)c1ccccc1C1SCc2nc3ccccc3n21` (configuration not stated), the TGI in assay [9], in assay [4], in assay [5], in [10] and in assay [8] was above 100 µM each time.
For the compound `CCCCCCCCCCCC/C=C\CC[C@@H](O)[C@H](O)CC[C@H](O)[C@@H]1CC[C@@H](CCCCCCCC2=C[C@H](C)OC2=O)O1`, in assay [6], the GI50 was 6.76 µM and the TGI is 23.4 µM.
For the compound `CC(=O)CCC1(c2ccccc2)OC(=O)C(C#N)=C1c1ccccc1` (configuration not stated), the TGI in assay [9], in assay [3], in [5], in [12], in [10] and in assay [8] was above 100 µM each time. In addition, the TGI in assay [11] was above 100 µM.
As to `C/C=C/C=C/c1cc2cc3c(c(O)c2c(=O)[nH]1)C1(CC3)C(O)=c2c(=O)c3c(=O)cc(OC)c(=O)c=3c(=O)c2=C1O` (configuration not stated), the TGI was 13 µM in [9]; 7.47 µM in assay [4]; above 56.7 µM in assay [5]; above 100 µM in [12]; 11.9 µM in assay [6]; 17.9 µM in assay [10]. Further, the TGI in assay [8] turned out to be 7.82 µM; in [11] it was 10.9 µM.
Regarding `O=c1cc(-c2ccccc2)oc2ccc(Cl)cc12`, the TGI in [9] is above 100 µM; in [3], above 90.5 µM; in assay [4], above 100 µM; in assay [5] it was above 100 µM; in assay [6], above 61.1 µM; in assay [10], above 100 µM. Besides, the TGI in [8] and in [11] was above 100 µM each time.
For `CCOc1ccc(NC(=O)CC2SC(=Nc3ccc(C)cc3)NC2=O)cc1` (configuration not stated), the TGI in assay [9], in [3], in [5], in [12], in assay [10] and in [8] was above 100 µM throughout. In assay [11], the TGI was above 100 µM.
For `Cc1cc(NCCCCCCCNc2cc(C)nc3cc(N)ccc23)c2ccc(N)cc2n1`, the TGI was above 100 µM in assay [9]; 66.2 µM in assay [3]; above 100 µM in assay [5]; above 100 µM in [10]; above 100 µM in assay [11].
For the compound `COC1C(OC(=O)c2ccc(C)[nH]2)C(O)C(Oc2ccc3c(O)c(NC(=O)c4ccc(O)c(CC=C(C)C)c4)c(=O)oc3c2Cl)OC1(C)C` (configuration not stated), the TGI in assay [6] was above 100 µM.
In the case of `Cc1c(Cl)ccc2c1NC(=O)C2(O)CC(=O)c1ccc(Cl)cc1` (configuration not stated), the TGI in assay [9] is 26.9 µM; in assay [4], above 100 µM; in assay [5] it was above 100 µM; in [12], above 100 µM; in assay [10], above 100 µM; in [8], above 100 µM. Besides, the TGI in [11] is above 100 µM.
